Values joined by “and” are separate entries in the source; they are usually repeats but may differ in a detail not shown here. Identical values can stand only once.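 48-hour exposure; five concentrations; linearly interpolated endpoints. The concentration for 50% growth inhibition is given as GI50.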 Active and inactive are the calls of the source. Rule as the data show it: active = GI50 up to about 1.1 µM and inactive = higher.
Tests used:
Assay in all cases: inhibition of tumour cell growth, NCI panel, 48 h
[1] = test system: COLO 205
[2] = test system: UACC-62
[3] = test system: SN12C
[4] = test system: SK-OV-3
[5] = test system: RXF 393
[6] = test system: HCC 2998
[7] = test system: SF-295
[8] = test system: SNB-19
[9] = test system: HOP-62
[10] = test system: PC-3
[11] = test system: UO-31
[12] = test system: HT-29
[13] = test system: A549
[14] = test system: Hs-578T
[15] = test system: A498
[16] = test system: RPMI-8226
[17] = test system: SF-268
[18] = test system: DU-145
[19] = test system: SNB-75
[20] = test system: SW-620

Row | Compound | GI50 [1] | GI50 [2] | GI50 [3] | GI50 [4] | GI50 [5] | GI50 [6] | GI50 [7] | GI50 [8] | GI50 [9] | GI50 [10] | GI50 [11] | GI50 [12] | GI50 [13] | GI50 [14] | GI50 [15] | GI50 [16] | GI50 [17] | GI50 [18] | GI50 [19] | GI50 [20]
1 | O=[N+]([O-])C(/C=C(\Cl)[N+](=O)[O-])=C(N1CCCCC1)N1CCCCC1 | 21.5 µM (inactive) | 18.6 µM (inactive) | 45 µM (inactive) | > 100 µM (inactive) | 49.4 µM (inactive) | 44.7 µM (inactive) | > 100 µM (inactive) | > 100 µM (inactive) | 39.6 µM (inactive) | 39.6 µM (inactive) | 21.3 µM (inactive) | 31.3 µM (inactive) | 15.6 µM (inactive) | 58.2 µM (inactive) | 41.4 µM (inactive) | 30.8 µM (inactive) | 51.2 µM (inactive) | 62.5 µM (inactive) | – | –
2 | O=C(O)c1cccc2cccc(-c3cccc4cccc(C(=O)O)c34)c12 | > 100 µM (inactive) | > 100 µM (inactive) | > 100 µM (inactive) | > 100 µM (inactive) | > 100 µM (inactive) | > 100 µM (inactive) | > 100 µM (inactive) | > 100 µM (inactive) | > 100 µM (inactive) | > 100 µM (inactive) | > 100 µM (inactive) | > 100 µM (inactive) | > 100 µM (inactive) | > 100 µM (inactive) | > 100 µM (inactive) | – | > 100 µM (inactive) | > 100 µM (inactive) | > 100 µM (inactive) | > 100 µM (inactive)
3 | O=C1N/C(=N/N=C\C(O)C(O)C(O)C(O)CO)N/C1=C/c1ccc(Cl)cc1 (stereo unspecified) | > 100 µM (inactive) | – | > 100 µM (inactive) | > 100 µM (inactive) | > 100 µM (inactive) | 95.7 µM (inactive) and 99.3 µM (inactive) | > 100 µM (inactive) | > 100 µM (inactive) | > 100 µM (inactive) | > 100 µM (inactive) | > 100 µM (inactive) | > 100 µM (inactive) | > 100 µM (inactive) | > 100 µM (inactive) | > 100 µM (inactive) | > 100 µM (inactive) | > 100 µM (inactive) and 98.2 µM (inactive) | > 100 µM (inactive) | > 100 µM (inactive) | > 100 µM (inactive)
4 | O=[N+]([O-])c1ccc(-c2nc3ccccc3o2)cc1 | > 100 µM (inactive) | > 100 µM (inactive) | > 100 µM (inactive) | > 100 µM (inactive) | > 100 µM (inactive) | > 100 µM (inactive) | > 100 µM (inactive) | > 100 µM (inactive) | 69 µM (inactive) | > 100 µM (inactive) | > 100 µM (inactive) | – | > 100 µM (inactive) | > 100 µM (inactive) | > 100 µM (inactive) | > 100 µM (inactive) | > 100 µM (inactive) | > 100 µM (inactive) | > 100 µM (inactive) | > 100 µM (inactive)
5 | Cc1cc2c(cc1Cl)SSc1cc(Cl)c(C)cc1S(=O)(=O)Nc1nc(N)nn1C(O)n1nc(N)nc1NS2(=O)=O | > 10 µM (inactive) | – | > 10 µM (inactive) | > 10 µM (inactive) | > 10 µM (inactive) | > 10 µM (inactive) | > 10 µM (inactive) | > 10 µM (inactive) | > 10 µM (inactive) | > 10 µM (inactive) | > 10 µM (inactive) | > 10 µM (inactive) | > 10 µM (inactive) | > 10 µM (inactive) | > 10 µM (inactive) | > 10 µM (inactive) | > 10 µM (inactive) | > 10 µM (inactive) | > 10 µM (inactive) | > 10 µM (inactive)
6 | Cc1cc(N(CCC#N)CCC#N)ccc1/C=C1N=C(/C=C\c2ccccc2)N(c2ccc(Cl)cc2)C\1=O | 0.745 µM (active) | 0.746 µM (active) | > 45 µM (inactive) | > 87.1 µM (inactive) | > 100 µM (inactive) | 1.81 µM (inactive) | 4.57 µM (inactive) | > 100 µM (inactive) | 5.21 µM (inactive) | 0.536 µM (active) | 7.36 µM (inactive) | 2.11 µM (inactive) | > 39.9 µM (inactive) | > 100 µM (inactive) | > 100 µM (inactive) | – | > 22 µM (inactive) | > 100 µM (inactive) | > 100 µM (inactive) | 11.6 µM (inactive)
7 | CN/N=C(/CCN1CCCC1)CC(c1ccccc1)c1c(O)c2ccccc2oc1=O (stereo unspecified) | 34.9 µM (inactive) | > 100 µM (inactive) | > 100 µM (inactive) | > 100 µM (inactive) | > 100 µM (inactive) | > 100 µM (inactive) | > 100 µM (inactive) | > 100 µM (inactive) | > 100 µM (inactive) | > 100 µM (inactive) | > 67.1 µM (inactive) | > 100 µM (inactive) | > 100 µM (inactive) | > 100 µM (inactive) | > 100 µM (inactive) | 25.5 µM (inactive) | > 100 µM (inactive) | > 100 µM (inactive) | 19.4 µM (inactive) | > 100 µM (inactive)
8 | CC1=C(C(=O)N(C)c2ccc(Cl)c(C(=O)OC(C)C)c2)SCCO1 | 70.8 µM (inactive) | 53.1 µM (inactive) | > 100 µM (inactive) | > 100 µM (inactive) | – | > 100 µM (inactive) | 60.1 µM (inactive) | 74.6 µM (inactive) | – | 38.5 µM (inactive) | 27.2 µM (inactive) | 46.7 µM (inactive) | 90.2 µM (inactive) | > 100 µM (inactive) | 74.3 µM (inactive) | 26.6 µM (inactive) | > 100 µM (inactive) | > 100 µM (inactive) | 18.7 µM (inactive) | > 100 µM (inactive)
9 | CCOC(=O)n1cncc1CC(NC(=O)Cc1c(C(=O)C=C(C)C)[nH]c2ccccc12)C(=O)OC (stereo unspecified) | 18.1 µM (inactive) | 20.3 µM (inactive) | 16.3 µM (inactive) | 17.5 µM (inactive) | 14.1 µM (inactive) | 13.9 µM (inactive) | 17.7 µM (inactive) | 14.5 µM (inactive) | – | 17 µM (inactive) | 15.7 µM (inactive) | 22.3 µM (inactive) | 19.2 µM (inactive) | 19.3 µM (inactive) | 24.9 µM (inactive) | 32.5 µM (inactive) | 18 µM (inactive) | 18.5 µM (inactive) | 22.9 µM (inactive) | 25.7 µM (inactive)
10 | Cc1ccc(NC(=O)/C(Cc2cc(=O)oc3cc(O)ccc23)=N\NC(=O)C[N+](C)(C)C)cc1C | > 100 µM (inactive) | > 100 µM (inactive) | > 100 µM (inactive) | > 100 µM (inactive) | 66.2 µM (inactive) | > 100 µM (inactive) | > 100 µM (inactive) | > 100 µM (inactive) | > 100 µM (inactive) | > 100 µM (inactive) | > 100 µM (inactive) | > 100 µM (inactive) | > 100 µM (inactive) | > 100 µM (inactive) | > 100 µM (inactive) | > 100 µM (inactive) | > 100 µM (inactive) | > 100 µM (inactive) | > 100 µM (inactive) | > 100 µM (inactive)
11 | O=[N+]([O-])C(C(Cl)=C(Cl)Cl)=C(N(Cc1ccccc1)Cc1ccccc1)N(Cc1ccccc1)Cc1ccccc1 | 57 µM (inactive) | > 100 µM (inactive) | 29.3 µM (inactive) | 38.1 µM (inactive) | 92.9 µM (inactive) | 24 µM (inactive) | 27.9 µM (inactive) | > 100 µM (inactive) | 43.7 µM (inactive) | 53.7 µM (inactive) | 45.8 µM (inactive) | 33 µM (inactive) | > 100 µM (inactive) | > 100 µM (inactive) | 30.5 µM (inactive) | – | > 100 µM (inactive) | > 100 µM (inactive) | > 100 µM (inactive) | > 100 µM (inactive)
12 | COc1ccc(C(=O)/C=C/c2ccc(OCC(=N)N)cc2)cc1 | 14.2 µM (inactive) | 15.6 µM (inactive) | 13.5 µM (inactive) | 12.9 µM (inactive) | 14.7 µM (inactive) | 16.6 µM (inactive) | 16.3 µM (inactive) | 15.8 µM (inactive) | 15.8 µM (inactive) | 14.7 µM (inactive) | 19.8 µM (inactive) | 15.3 µM (inactive) | 17.7 µM (inactive) | 16.4 µM (inactive) | 13.6 µM (inactive) | – | 17.3 µM (inactive) | 12.8 µM (inactive) | 5.73 µM (inactive) | 3.7 µM (inactive)
13 | CC(=O)OCC1OC(N2C(S)=C(C#N)C(c3ccco3)C(C(C)=O)=C2c2ccccc2)C(OC(C)=O)C(OC(C)=O)C1OC(C)=O (stereo unspecified) | 64.9 µM (inactive) | 34 µM (inactive) | 29.4 µM (inactive) | – | > 100 µM (inactive) | > 100 µM (inactive) | 23.4 µM (inactive) | 39.5 µM (inactive) | 16.9 µM (inactive) | 24.9 µM (inactive) | 29.3 µM (inactive) | > 100 µM (inactive) | 49.4 µM (inactive) | 17.7 µM (inactive) | > 100 µM (inactive) | 95.9 µM (inactive) | > 100 µM (inactive) | 79.8 µM (inactive) | 8.49 µM (inactive) | 89.9 µM (inactive)
14 | Cc1ccc(C(=O)Nc2ccc(CP(=O)(O)O)cc2CP(=O)(O)O)cc1NC(=O)c1cccc(NC(=O)Nc2cccc(C(=O)Nc3cc(C(=O)Nc4ccc(CP(=O)(O)O)cc4CP(=O)(O)O)ccc3C)c2)c1 | > 100 µM (inactive) | > 100 µM (inactive) | > 100 µM (inactive) | > 100 µM (inactive) | > 100 µM (inactive) | > 100 µM (inactive) | > 100 µM (inactive) | – | > 100 µM (inactive) | > 100 µM (inactive) | > 100 µM (inactive) | > 100 µM (inactive) | > 100 µM (inactive) | > 100 µM (inactive) | > 100 µM (inactive) | > 100 µM (inactive) | > 100 µM (inactive) | > 100 µM (inactive) | > 100 µM (inactive) | 41.8 µM (inactive)

From ChEMBL document CHEMBL1201862, “PubChem BioAssay data set” (2004)
